Four molecules from ChEMBL document CHEMBL3861967, “Cyclopeptide Alkaloids from Hymenocardia acida” (J Nat Prod, 2016) can be followed below.

Series [1] can be described thus: Cytotoxicity against human MRC5 cells assessed as decrease in cell viability after 7 days by MTT assay. Format: toxicity, cell-based. On the technique in general: Tetrazolium assays rely on reduction of a dye to a coloured formazan, in cell work by metabolically active cells.
The subject of series [2] is Plasmodium falciparum. The series is described as follows: Antiplasmodial activity against chloroquine-resistant Plasmodium falciparum K1 infected in human erythrocytes assessed as reduction in parasitemia after 72 hrs by lactate dehydrogenase assay. Format: functional, cell-based. The note with it: K1, 72 h.

pIC50: −log10 of the molar value.

What is called IC50 is the midpoint of a concentration-inhibition curve. The pIC50 is the IC50 on a negative log10 scale, so that one unit is a factor of ten. Consider `CCC(C)[C@@H](C(=O)N[C@H](C(=O)N[C@@H]1C(=O)N[C@@H](Cc2c[nH]c3ccccc23)C(=O)NCC(=O)c2ccc(cc2)OC1(C)C)C(C)C)[N+](C)(C)[O-]` (stereo partly drawn), for which the half-inhibitory concentration (IC50) at 7 days in series [1] was more than 64 µM. Besides, the negative-log IC50 (pIC50) in series [2] is 4.91.
`CCC(C)[C@@H](C(=O)N[C@H](C(=O)N[C@@H]1C(=O)N[C@@H](Cc2c[nH]c3ccccc23)C(=O)NCC(O)c2ccc(cc2)OC1(C)C)C(C)C)N(C)C` (stereo partly drawn): the IC50 at 7 days in series [1] was more than 64 µM. Further, the pIC50 in series [2] was 4.76.
`CCC(C)[C@H](NC(=O)[C@H](C(C)CC)N(C)C)C(=O)N[C@@H]1C(=O)N[C@@H](Cc2c[nH]cn2)C(=O)NCC(=O)c2ccc(cc2)O[C@H]1C(C)C` (stereo partly drawn): the IC50 at 7 days in series [1] is more than 64 µM. The pIC50 in series [2] is 4.55.
The corresponding values for `CCC(C)[C@@H](C(=O)N[C@H](C(=O)N[C@@H]1C(=O)N[C@@H](Cc2c[nH]c3ccccc23)C(=O)NCC(=O)c2ccc(cc2)OC1(C)C)C(C)C)N(C)C` (stereo partly drawn) are 51.1 µM and 4.79.
